Laboratory results as given in patent US20250032625A1, “HETEROBIFUNCTIONAL MOLECULES AS TEAD INHIBITORS” (Merck Patent GmbH, priority 2021, published 2025).
Where two headings read alike, the source gives them in different places.

Assays:
TEAD1 in NCI-H226 cells = TEAD1 in NCI-H226 cells (Homo sapiens (Human), UniProt P28347); test: TEAD degradation in NCI-H226 cell line (immunofluorescence); format: cell-based
Summary of the method: (§1)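 SK-HEP1 and NCI-H226 cells were treated in duplicate for 16 or 24 h at 37 °C with compound (10 points, 1:3, top 30 µM final). After fixation, TEAD1 was immunostained with anti-TEF1 and per-cell fluorescence quantified by high-content imaging. DC50 from curve fitting.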

TEAD1 in SK-HEP1 cells = TEAD1 in SK-HEP1 cells (Homo sapiens (Human), UniProt P28347); test: TEAD degradation in SK-HEP1 cell line (immunofluorescence); format: cell-based
Summary of the method: as §1

TEAD1 = TEAD1 (Homo sapiens (Human), UniProt P28347); test: TEAD degradation assay, 6 h time point, cell line not stated; format: cell-based; conditions: after 6 h, read-out: degradation concentration, DC50, after 6 h
Protocol: Degradation of TEAD isoform TEAD1 by exemplary compounds which has been determined at different time points in two different cell lines, SK-HEP1 and NCI-H226: For the assay, SK-HEP1 (ATCC HTB-52) and NCI-H226 (ATCC CRL-5826) cells were treated in duplicates with the test compounds in a 10-point dose, 1:3 dilution steps, with the top concentration starting at 30 uM (final concentration in assay). […] The primary antibody used was Anti-TEF1 (BD, 610293) and the secondary antibody used was Alexa Fluor® 488 Goat Anti-Mouse IgG (H+L) (Molecular Probes, A-11001). Finally, the cell nuclei were co-stained by Hoechst 33258 (Invitrogen, H-3569) and imaged using a high content imager. The amount of TEAD degradation was determined by quantifying the fluorescence intensity levels of Anti-TEF1 in each individual cell per well. DC50 was calculated using curve fitting software Genedata Screener. Cell media: The SK-HEP1 cells were cultured in the following media: MEM, +10% FCS, +1× GlutaMAX, +100 μM NEAA, +10 mM HEPES, +0.5% Pen/Strep. The NCI-H226 cells were cultured in the following media: RPMI 1640, +10% FBS, +1× GlutaMAX, +10 mM HEPES, +0.5% Pen/Strep.

hsTEAD2 (217-447) = hsTEAD2 (217-447) (Homo sapiens (Human), UniProt Q15562); test: Thermal shift measurement / Differential Scanning Fluorimetry (DSF); format: binding; conditions: 100 uM compound, 2 hours at 4° C., triplicates; read-out: ΔTm TEAD2 (217-447)
Protocol: (§2) Interaction of exemplary compounds with the various TEAD isoforms TEAD1, TEAD2, TEAD3, and TEAD4 was performed in a DSF assay. YAP-binding domains (YBD) of the four isoforms were subcloned and heterogeneously expressed in E. coli as a host. Initial purification was perfomed by using affinity tags, which got removed by overnight protease treatment. Further purification of TEAD isoforms was performed by Size-Exclusion Chromatography (SEC). Target protein containing fractions were pooled, concentrated with an Amicon (10 KDa MWCO) and quantified using the Bradford assay. Exemplary compound testing in the DSF assay for determining the shift of the TEAD isoform melting temperatures has been performed as described below: DSF was performed in MicroAmpTM EnduraPlateTM Optical 96-Well Clear Reaction Plates (Applied Biosystems, Life Technologies, California, USA) using a QuantStudio 7 Flex Real-Time PCR System (Applied Biosystems). Protein samples were briefly centrifuged before preparation. The final reaction mixture (20 μL of total volume) contained 11.8 μM of […]1 (209-426), 7.3 μM of […]2 (217-447), 7.9 μM of […]3 (216-435) or 11.7 μM of […]4 (217-424), and 2 or 4-fold of Protein Thermal ShiftTM Dye (Applied Biosystems) diluted in protein buffer-20 mM Tris pH 8.0, 150 mM NaCl (+0.5 mM TCEP for TEAD1 experiments). Prior to the addition of the dye, proteins were incubated with either 1 μL DMSO 100% (apo) or 100 uM of each exemplary compound (1 μL at 2 mM in 100% DMSO added to the […] reaction mixture) for 2 hours at 4° C. The melting curve data was recorded from 25 to 90° C. with an increment rate of 0.016° C.s^-1. Excitation and emission filters were applied for Protein Thermal ShiftTM Dye (470 nm and 520 nm, respectively) and for ROX reference dye (580 nm and 623 nm, respectively). The melting temperatures (Tm) were obtained by calculating the midpoint of each transition, using the Protein Thermal Shift SoftwareTM version 1.3. The thermal stability effect of each compound (ΔTm) was calculated by subtracting the calculated Tm in presence and absence (apo) of compound. All samples were tested in triplicates.

hsTEAD1 (209-426) [1] = target: T1, hsTEAD1 (209-426) (Homo sapiens (Human), UniProt P28347); test: as above; format: binding; conditions: 100 uM compound, 2 hours at 4° C., triplicates; read-out: ΔTm TEAD1 (209-426)
Protocol: as §2

hsTEAD4 (217-424) = hsTEAD4 (217-424) (Homo sapiens (Human), UniProt Q15561); test: as above; format: binding; conditions: 100 uM compound, 2 hours at 4° C., triplicates; read-out: ΔTm TEAD4 217-434
Protocol: as §2

hsTEAD3 (216-435) = hsTEAD3 (216-435) (Homo sapiens (Human), UniProt Q99594); test: as above; format: binding; conditions: 100 uM compound, 2 hours at 4° C., triplicates; read-out: ΔTm TEAD3 216-435
Protocol: as §2

hsTEAD1 (209-426) [2] = target: T1, hsTEAD1 (209-426); test: Surface Plasmon Resonance (SPR) assay; format: binding; conditions: Biacore 4000, 15° C., 1:1 Langmuir model, read-out: KD TEAD1 (209-426)
Protocol: The kinetic and affinity parameters of protein-exemplary compound interactions were evaluated by SPR. hsTEAD1 (209-426) was immobilized onto a CM7 (Series S) sensor chip via the standard amine coupling procedure, at 15° C. Prior to immobilization, the carboxymethylated surface of the chip was activated with 400 mM 1-ethyl-3-(3-dimethylaminopropyl)-carbodiimide and 100 mM N-hydroxysuccinimide for 10 min. hsTEAD1 (209-426) was diluted to 11 μg/mL in 10 mM Bis-Tris at pH 6.5 and immobilized on the activated surface chip for 8 and 10 min, in order to reach 6000 to 9000 response units (RU). The remaining activated carboxymethylated groups were blocked with a 7 min injection of 1 M ethanolamine pH 8.5 after which the surface chip was washed with 0.5% (w/v) sodium dodecyl sulphate and 50 mM glycine. HBS-N, which consists of 10 mM HEPES pH 7.4 and 150 mM NaCl, was used as the background buffer during immobilization. Exemplary compounds were prediluted in DMSO, diluted 1:50 in running buffer (20 mM Tris pH 7.4, 150 mM NaCl, 1 mM DTT, 5 mM MgCl2, 0.1 mM EGTA, 0.05% CHAPS) and injected at ten different concentrations using two-fold dilution series, from 100 μM to 0.2 μM. A DMSO solvent correction (1%-3%) was performed to account for variations in bulk signal and to achieve high-quality data. Interaction analysis cycles consisted of a 240 sec sample injection (30 μL/min; association phase) followed by 600 sec of buffer flow (dissociation phase).
All sensorgrams were processed by first subtracting the binding response recorded from the control surface (reference spot), followed by subtracting of the buffer blank injection from the reaction spot. All datasets were fit to a simple 1:1 Langmuir interaction model to determine the kinetic rate constants, KD. Experiments were performed on a Biacore 4000 (Cytiva, Uppsala, Sweden) at 15° C. and the interactions were evaluated using the provided Biacore 4000 evaluation software.

[3] = 16 h incubation, read-out: DC50 NCI-H226 16 h
[4] = 24 h incubation, read-out: DC50 NCI-H226 24 h
[5] = 24 hours, ranges, read-out: DC50 NCI-H226
[6] = 16 h incubation, read-out: DC50 SK-HEP1 16 h
[7] = 24 h incubation, read-out: DC50 SK-HEP1 24 h
[8] = 24 hours, ranges, read-out: DC50 SK-HEP1

TEAD1 in SK-HEP1 cells, sequence (P28347 whole entry): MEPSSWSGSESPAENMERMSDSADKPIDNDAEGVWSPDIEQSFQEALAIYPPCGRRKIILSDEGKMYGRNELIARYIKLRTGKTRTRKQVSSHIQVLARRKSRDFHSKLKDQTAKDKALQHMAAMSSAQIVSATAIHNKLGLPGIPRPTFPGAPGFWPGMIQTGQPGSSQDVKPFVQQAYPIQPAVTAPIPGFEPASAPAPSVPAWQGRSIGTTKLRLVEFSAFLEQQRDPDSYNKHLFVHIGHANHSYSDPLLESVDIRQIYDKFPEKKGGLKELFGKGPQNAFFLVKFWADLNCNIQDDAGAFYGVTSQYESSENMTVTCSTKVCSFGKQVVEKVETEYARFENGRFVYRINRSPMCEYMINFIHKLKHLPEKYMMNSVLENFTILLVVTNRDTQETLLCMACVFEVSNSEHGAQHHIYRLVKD
TEAD1 in NCI-H226 cells, sequence (P28347 whole entry): as above
T1 sequence (P28347 209-426): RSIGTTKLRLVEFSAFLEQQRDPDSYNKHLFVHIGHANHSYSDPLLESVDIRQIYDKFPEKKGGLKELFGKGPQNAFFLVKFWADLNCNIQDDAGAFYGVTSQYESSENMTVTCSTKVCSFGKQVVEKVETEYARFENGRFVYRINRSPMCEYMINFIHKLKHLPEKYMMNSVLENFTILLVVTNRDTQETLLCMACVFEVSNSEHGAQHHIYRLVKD
hsTEAD3 (216-435), sequence (Q99594 216-435): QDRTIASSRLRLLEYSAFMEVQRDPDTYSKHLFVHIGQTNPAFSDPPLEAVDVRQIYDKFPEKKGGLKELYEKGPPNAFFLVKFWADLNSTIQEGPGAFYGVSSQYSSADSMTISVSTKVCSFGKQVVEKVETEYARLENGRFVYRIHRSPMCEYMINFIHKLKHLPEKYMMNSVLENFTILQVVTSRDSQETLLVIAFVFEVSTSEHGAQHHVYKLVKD
TEAD1, sequence (P28347 whole entry, canonical isoform): as the sequence (P28347 whole entry) above
hsTEAD4 (217-424), sequence (Q15561 217-434): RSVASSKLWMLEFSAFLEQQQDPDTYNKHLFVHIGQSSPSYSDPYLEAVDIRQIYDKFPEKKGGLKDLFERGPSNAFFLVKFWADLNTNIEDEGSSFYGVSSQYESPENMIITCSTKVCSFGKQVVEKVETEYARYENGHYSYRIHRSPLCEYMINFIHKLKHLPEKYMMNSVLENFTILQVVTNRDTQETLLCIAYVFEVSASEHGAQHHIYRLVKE
hsTEAD2 (217-447), sequence (Q15562 217-447): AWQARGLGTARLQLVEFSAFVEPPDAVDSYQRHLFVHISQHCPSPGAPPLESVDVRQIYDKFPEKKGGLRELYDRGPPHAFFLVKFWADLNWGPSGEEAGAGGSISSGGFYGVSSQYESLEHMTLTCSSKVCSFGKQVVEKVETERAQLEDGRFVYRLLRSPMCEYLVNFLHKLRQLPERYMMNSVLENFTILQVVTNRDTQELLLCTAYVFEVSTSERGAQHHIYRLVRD

| Compound | DC50 (TEAD1 in NCI-H226 cells; [3]) [nM] | DC50 (TEAD1 in NCI-H226 cells; [4]) [nM] | DC50 (TEAD1 in NCI-H226 cells; [5]) [nM] | DC50 (TEAD1 in SK-HEP1 cells; [6]) [nM] | DC50 (TEAD1 in SK-HEP1 cells; [7]) [nM] | DC50 (TEAD1 in SK-HEP1 cells; [8]) [nM] | DC50 (TEAD1) [nM] | ΔTm at 100 µM (hsTEAD2 (217-447)) [°C] | ΔTm at 100 µM (hsTEAD1 (209-426) [1]) [°C] | ΔTm at 100 µM (hsTEAD4 (217-424)) [°C] | ΔTm at 100 µM (hsTEAD3 (216-435)) [°C] | Kd (hsTEAD1 (209-426) [2]) [nM] |
| --- | --- | --- | --- | --- | --- | --- | --- | --- | --- | --- | --- | --- |
| Cc1ncsc1-c1ccc([C@H](C)NC(=O)[C@@H]2C[C@@H](O)CN2C(=O)[C@@H](NC(=O)CCCCCc2cn(CCCCCCCNC(=O)c3ccc4c(c3)c3cn(C)nc3n4-c3ccc(C(F)(F)F)cc3)nn2)C(C)(C)C)cc1 [Compound 29, (2S,4R)-1-[(2S)-3,3-dimethyl-2-(6-{1-[7-({2-methyl-8-[4-(trifluoromethyl)phenyl]-2H,8H-pyrazolo[3,4-b]indol-5-yl}formamido)heptyl]-1H-1,2,3-triazol-4-yl}hexanamido)butanoyl]-4-hydroxy-N-[(1S)-1-[4-(4-methyl-1,3-thiazol-5-yl)phenyl]ethyl]pyrrolidine-2-carboxamide] | 200 | 300 | 100 to 1000 | 220 | 280 | 100 to 1000 | 280 | – | – | – | – | – |
| Cc1ncsc1-c1ccc(CNC(=O)[C@@H]2C[C@@H](O)CN2C(=O)[C@@H](NC(=O)CCCCCC(=O)NCCOCCOCCNC(=O)c2ccc3c(c2)c2cn(C)nc2n3-c2ccc(C(F)(F)F)cc2)C(C)(C)C)cc1 [Compound 4, N-[(2S)-1-[(2S,4R)-4-hydroxy-2-({[4-(4-methyl-1,3-thiazol-5-yl)phenyl]methyl}carbamoyl)pyrrolidin-1-yl]-3,3-dimethyl-1-oxobutan-2-yl]-N′-(2-{2-[2-({2-methyl-8-[4-(trifluoromethyl)phenyl]-2H,8H-pyrazolo[3,4-b]indol-5-yl}formamido)ethoxy]ethoxy}ethyl) heptanediamide] | 700 | 900 | 1000 to 3000 | 2000 | 2000 | 100 to 1000 | – | 1 | 2.9 | 0 | 0.6 | 320 |
